Patent publication US8133871B2, “Dihydropseudoerythromycin derivatives” (The Kitasato Institute, priority 2005, dated 2012)

The compounds below were run on THP-1 cells (assay: THP-1 differentiation induction-promoting activity). Conditions: Homo sapiens, THP-1; lowest concentration necessary to show 50% activity relative to the activity value of erythromycin A at 100 μM; PMA 1-2 μM, 72-96 hr.
Assay type: cell-based
Protocol: As one index of the anti-inflammatory action of the compound of the present invention, the differentiation induction-promoting activity of THP-1 cell was measured. The measurement was performed as shown below.
THP-1 cells (ATCC No. TIB-202) were adjusted to a concentration of 2×10^5 cells/ml with a medium (RPMI 1640), PMA was added thereto to a final concentration of 1-2 μM, and the mixture was dispensed to each well of a 96 well plate by 100 μl. A solution (100 μl) containing a test substance was adjusted to an appropriate concentration with the medium and added to each well. The mixture was stirred by gently shaking the plate, and incubated under 37° C., 5% CO2 conditions for 72-96 hr. Each well was washed with PBS, a medium containing the viable cell measurement reagent SF (Nacalai Tesque) was added at 100 μl/well and the mixture was incubated under the conditions of 37° C., 5% CO2 for 3-5 hr. The absorbance was measured with a plate reader.
In the Table, the activity value is the lowest concentration necessary for the test compound to show a 50% activity value relative to the activity value of erythromycin A at 100 μM in this experiment.
THP-1 differentiation induction-promoting activity: The lowest concentration necessary for each compound to show 50% activity relative to the activity value of erythromycin A at 100 μM.

Question: For `CC[C@@H](O)[C@@](C)(O)[C@@H]1OC(=O)[C@H](C)[C@@H](O[C@H]2CC(C)(OC)[C@@H](O)C(C)O2)[C@H](C)[C@@H](O[C@@H]2OC(C)CC(N(C)Cc3ccccc3)C2O)[C@@]2(C)CC(C)C(O2)[C@@H]1C` (stereo partly shown) [EM902, de(3′-N-methyl)-3′-N-benzyl-9-dihydro-pseudoerythromycin A 6,9-epoxide], which minimal effective concentration is on record?
Answer: The minimal effective concentration was 30 µM.

Question: Which minimal effective concentration does the source give for `CC[C@@H](O)[C@@](C)(O)[C@@H]1OC(=O)[C@H](C)[C@@H](O[C@H]2CC(C)(OC)[C@@H](O)C(C)O2)[C@H](C)[C@@H](O[C@@H]2OC(C)CC(N)C2O)[C@]2(C)CC(C)C(O2)[C@@H]1C` (stereo partly shown) [EM903, bis-de(3′-N-methyl)-9-dihydro-pseudoerythromycin A 6,9-epoxide] here?
Answer: Its minimal effective concentration is 30 µM.

Question: `CC[C@@H](O)[C@@](C)(O)[C@@H]1OC(=O)[C@H](C)[C@@H](O[C@H]2CC(C)(OC)[C@@H](O)C(C)O2)[C@H](C)[C@@H](O[C@@H]2OC(C)CC(N(Cc3ccccc3)Cc3ccccc3)C2O)[C@@]2(C)CC(C)C(O2)[C@@H]1C` (stereo partly shown) [EM904, bis-de(3′-N-methyl)-bis-(3′-N-benzyl)-9-dihydro-pseudoerythromycin A 6,9-epoxide] was tested. Which minimal effective concentration did it give?
Answer: The minimal effective concentration was 10 µM.

Question: Which minimal effective concentration does the source give for `COC1(C)C[C@H](O[C@H]2[C@H](C)[C@@H](O[C@@H]3OC(C)CC(N(C)C)C3O)[C@]3(C)CC(C)C(O3)[C@H](C)[C@H](C(C)=O)OC(=O)[C@@H]2C)OC(C)[C@@H]1O` (stereo partly shown) [EM906, de[12-(1-hydroxypropyl)]-9-dihydro-12-oxo-pseudoerythromycin A 6,9-epoxide] here?
Answer: The minimal effective concentration was 30 µM.

Question: For `COC1(C)C[C@H](O[C@H]2[C@H](C)[C@@H](O[C@@H]3OC(C)CC(N(C)C)C3O)[C@]3(C)CC(C)C(O3)[C@H](C)[C@H](C(C)O)OC(=O)[C@@H]2C)OC(C)[C@@H]1O` (stereo partly shown) [EM908, de[12-(1-hydroxypropyl)]-9-dihydro-pseudoerythromycin A 6,9-epoxide], which minimal effective concentration is on record?
Answer: The minimal effective concentration was 10 µM.

Question: `CC[C@@H]1O[C@@]1(C)[C@@H]1OC(=O)[C@H](C)[C@@H](O[C@H]2CC(C)(OC)[C@@H](O)C(C)O2)[C@H](C)[C@@H](O[C@@H]2OC(C)CC(N(C)C)C2O)[C@]2(C)CC(C)C(O2)[C@@H]1C` (stereo partly shown) [EM909, 12,13-epoxy-9-dihydro-pseudoerythromycin A 6,9-epoxide] was tested. Which minimal effective concentration did it give?
Answer: Its minimal effective concentration is 30 µM.

Question: `CC[C@@H](O)[C@@](C)(O)[C@@H]1OC(=O)[C@H](C)[C@@H](O)[C@H](C)[C@@H](O[C@@H]2OC(C)CC(N(C)C)C2O)[C@]2(C)CC(C)C(O2)[C@@H]1C` (stereo partly shown) [EM910, de(3-O-cladinosyl)-9-dihydro-pseudoerythromycin A 6,9-epoxide] was tested. Which minimal effective concentration did it give?
Answer: The minimal effective concentration was 100 µM.

Question: Which minimal effective concentration does the source give for `CC[C@@H](OC(C)=O)[C@@](C)(O)[C@@H]1OC(=O)[C@H](C)[C@@H](O[C@H]2CC(C)(OC)C(OC(C)=O)C(C)O2)[C@H](C)[C@@H](O[C@@H]2OC(C)CC(N(C)C)C2O)[C@]2(C)CC(C)C(O2)[C@@H]1C` (stereo partly shown) [EM911, 4″,13-O-diacetyl-9-dihydro-pseudoerythromycin A 6,9-epoxide] here?
Answer: The minimal effective concentration was 10 µM.

Question: With `CC[C@@H](O)[C@@](C)(O)[C@@H]1OC(=O)[C@H](C)[C@@H](O[C@H]2CC(C)(OC)[C@@H](O)C(C)O2)[C@H](C)[C@@H](O[C@@H]2OC(C)CC(N(C)C)C2OC(C)=O)[C@]2(C)CC(C)C(O2)[C@@H]1C` (stereo partly shown) [EM913, 2′-O-acetyl-9-dihydro-pseudoerythromycin A 6,9-epoxide] as the compound, how does the minimal effective concentration read?
Answer: Its minimal effective concentration is 30 µM.

Question: For `CC[C@H]1OC(=O)O[C@@]1(C)[C@@H]1OC(=O)[C@H](C)C(=O)[C@H](C)[C@@H](O[C@@H]2OC(C)CC(N(C)C)C2OC(C)=O)[C@]2(C)CC(C)C(O2)[C@@H]1C` (stereo partly shown) [EM917, 2′-O-acetyl-de(3-O-cladinosyl)-9-dihydro-3-keto-pseudoerythromycin A 6,9-epoxide 12,13-carbonate], which minimal effective concentration is on record?
Answer: The minimal effective concentration was 30 µM.

Question: For `CC[C@H]1OC(=O)O[C@@]1(C)[C@@H]1OC(=O)[C@H](C)C(=O)[C@H](C)[C@@H](O[C@@H]2OC(C)CC(N(C)C)C2O)[C@]2(C)CC(C)C(O2)[C@@H]1C` (stereo partly shown) [EM918, de(3-O-cladinosyl)-9-dihydro-3-keto-pseudoerythromycin A 6,9-epoxide 12,13-carbonate], which minimal effective concentration is on record?
Answer: The minimal effective concentration was 30 µM.

Question: For `CC[C@@H](O)[C@@](C)(O)[C@@H]1OC(=O)[C@H](C)[C@@H](O)[C@H](C)[C@H](O[C@@H]2OC(C)CC(N(C)Cc3ccc(Cl)cc3)C2O)[C@@]2(C)CC(C)C(O2)[C@@H]1C` (stereo partly shown) [EM925, de(3′-N-methyl)-3′-N-(p-chlorobenzyl)-de(3-O-cladinosyl)-9-dihydro-pseudoerythromycin A 6,9-epoxide], which minimal effective concentration is on record?
Answer: The minimal effective concentration was 30 µM.

Question: For `CC[C@H]1OC(=O)O[C@@]1(C)[C@@H]1OC(=O)[C@H](C)C(=O)[C@H](C)[C@@H](O[C@@H]2OC(C)CC(N3CCOCC3)C2OC(C)=O)[C@]2(C)CC(C)C(O2)[C@@H]1C` (stereo partly shown) [EM932, 2′-O-acetyl-de(3-O-cladinosyl)-9-dihydro-3-keto-de(3′-dimethylamino)-3′-morpholino-pseudoerythromycin A 6,9-epoxide 12,13-carbonate], which minimal effective concentration is on record?
Answer: The minimal effective concentration was 10 µM.

Question: For `CC[C@H]1OC(=O)O[C@@]1(C)[C@@H]1OC(=O)[C@H](C)C(=O)[C@H](C)[C@@H](O[C@@H]2OC(C)CC(N3CCOCC3)C2O)[C@]2(C)CC(C)C(O2)[C@@H]1C` (stereo partly shown) [EM935, de(3-O-cladinosyl)-9-dihydro-3-keto-de(3′-dimethylamino)-3′-morpholino-pseudoerythromycin A 6,9-epoxide 12,13-carbonate], which minimal effective concentration is on record?
Answer: Its minimal effective concentration is 30 µM.

Question: Which minimal effective concentration does the source give for `CC[C@H]1OC(=O)O[C@@]1(C)[C@@H]1OC(=O)[C@H](C)[C@@H](O)[C@H](C)[C@@H](O[C@@H]2OC(C)CC(N(C)C(=O)OCc3ccccc3)C2OC(=O)OCc2ccccc2)[C@]2(C)CC(C)C(O2)[C@@H]1C` (stereo partly shown) [EM936, de(3′-N-methyl)-2′-O-3′-N-bis(benzyloxycarbonyl)-de(3-O-cladinosyl)-9-dihydro-pseudoerythromycin A 6,9-epoxide 12,13-carbonate] here?
Answer: The minimal effective concentration was 10 µM.

Question: How did the minimal effective concentration turn out when `CC[C@H]1OC(=O)O[C@@]1(C)[C@@H]1OC(=O)[C@H](C)[C@@H](O)[C@H](C)[C@@H](O[C@@H]2OC(C)CC(N3CCOCC3)C2O)[C@]2(C)CC(C)C(O2)[C@@H]1C` (stereo partly shown) [EM946, de(3-O-cladinosyl)-9-dihydro-de(3′-dimethylamino)-3′-morpholino-pseudoerythromycin A 6,9-epoxide 12,13-carbonate] was run?
Answer: The minimal effective concentration was 100 µM.

Question: How did the minimal effective concentration turn out when `CC[C@H]1OC(C)(C)O[C@@]1(C)[C@@H]1OC(=O)[C@H](C)C(=O)[C@H](C)[C@@H](O[C@@H]2OC(C)CC(N(C)Cc3ccc(Cl)cc3)C2O)[C@]2(C)CC(C)C(O2)[C@@H]1C` (stereo partly shown) [EM947, de(3′-N-methyl)-3′-N-(p-chlorobenzyl)-de(3-O-cladinosyl)-9-dihydro-3-keto-pseudoerythromycin A 6,9-epoxide 12,13-isopropylidene Acetal] was run?
Answer: Its minimal effective concentration is 10 µM.

Question: How did the minimal effective concentration turn out when `CC[C@@H](O)[C@@](C)(O)[C@@H]1OC(=O)[C@H](C)C(=O)[C@H](C)[C@H](O[C@@H]2OC(C)CC(N(C)Cc3ccc(Cl)cc3)C2O)[C@]2(C)CC(C)C(O2)[C@@H]1C` (stereo partly shown) [EM949, de(3′-N-methyl)-3′-N-(p-chlorobenzyl)-de(3-O-cladinosyl)-9-dihydro-3-keto-pseudoerythromycin A 6,9-epoxide] was run?
Answer: The minimal effective concentration was 10 µM.

Same assay, conditions: lowest concentration necessary to show 50% activity relative to the activity value of erythromycin A at 100 μM; PMA 1-2 μM, 72-96 hr

Question: `CO[C@]1(C)C[C@H](O[C@H]2[C@H](C)[C@@H](O[C@@H]3O[C@H](C)C[C@H](N(C)C)[C@H]3O)[C@@]3(C)C[C@@H](C)[C@H](O3)[C@H](C)[C@H](/C(C)=N/O)OC(=O)[C@@H]2C)O[C@@H](C)[C@@H]1O` [EM907, de[12-(1-hydroxypropyl)]-9-dihydro-12-hydroxyoxime-pseudoerythromycin A 6,9-epoxide] was tested. Which “THP-1 differentiation induction-promoting activity” value did it give?
Answer: The value was 30.
